# From ChEMBL document CHEMBL5321228, “Discovery of novel BTK PROTACs with improved metabolic stability via linker rigidification strategy” (Eur J Med Chem, 2023)
# Calls of active or inactive are those of the source. No cut-off for these calls is given here.
# Experiments:
# [1] = molecular target: T1, Protein cereblon/Tyrosine-protein kinase BTK (Homo sapiens, UniProt Q06187+Q96SW2); assay: PROTAC activity at CRBN/BTK in human JeKo-1 cells assessed as induction of BTK degradation at 100 nM incubated for 24 hrs by Western blotting analysis relative to control; format: cell-based
# Target sequence in this assay (Q06187 2-659 limits assumed): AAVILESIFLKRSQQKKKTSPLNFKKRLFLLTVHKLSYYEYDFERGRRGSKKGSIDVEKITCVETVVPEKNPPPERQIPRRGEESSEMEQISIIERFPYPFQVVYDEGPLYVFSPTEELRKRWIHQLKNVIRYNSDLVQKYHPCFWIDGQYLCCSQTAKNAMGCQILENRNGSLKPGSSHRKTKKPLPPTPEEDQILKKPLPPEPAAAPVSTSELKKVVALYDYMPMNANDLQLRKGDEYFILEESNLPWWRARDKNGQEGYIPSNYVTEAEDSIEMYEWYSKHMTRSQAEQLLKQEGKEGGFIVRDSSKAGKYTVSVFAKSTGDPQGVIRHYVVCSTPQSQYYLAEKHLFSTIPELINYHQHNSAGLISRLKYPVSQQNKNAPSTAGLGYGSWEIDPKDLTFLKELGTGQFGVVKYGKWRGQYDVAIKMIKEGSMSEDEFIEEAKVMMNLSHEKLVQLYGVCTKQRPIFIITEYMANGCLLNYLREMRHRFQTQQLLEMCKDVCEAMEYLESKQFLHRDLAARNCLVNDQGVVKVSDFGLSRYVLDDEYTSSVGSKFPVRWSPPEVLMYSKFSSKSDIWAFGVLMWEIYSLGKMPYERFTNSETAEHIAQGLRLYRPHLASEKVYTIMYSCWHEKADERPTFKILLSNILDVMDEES
# Target sequence in this assay (Q96SW2 whole entry partner): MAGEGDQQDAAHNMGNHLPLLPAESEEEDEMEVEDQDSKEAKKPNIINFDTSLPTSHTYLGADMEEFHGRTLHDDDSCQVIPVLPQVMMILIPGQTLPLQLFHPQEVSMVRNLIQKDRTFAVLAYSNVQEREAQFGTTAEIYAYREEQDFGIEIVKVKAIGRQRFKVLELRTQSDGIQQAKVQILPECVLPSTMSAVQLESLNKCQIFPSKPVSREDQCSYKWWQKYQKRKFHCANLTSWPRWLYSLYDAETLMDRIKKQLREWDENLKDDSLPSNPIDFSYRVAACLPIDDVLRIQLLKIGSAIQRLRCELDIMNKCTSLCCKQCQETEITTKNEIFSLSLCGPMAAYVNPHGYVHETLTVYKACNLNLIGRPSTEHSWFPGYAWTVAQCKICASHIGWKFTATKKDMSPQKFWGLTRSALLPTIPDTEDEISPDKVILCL
# [2] = molecular target: T1, Protein cereblon/Tyrosine-protein kinase BTK; assay: PROTAC activity at CRBN/BTK in human JeKo-1 cells assessed as induction of BTK degradation at 1000 nM incubated for 24 hrs by Western blotting analysis relative to control; format: cell-based
# Target sequence in this assay (Q06187 2-659 limits assumed): as the sequence (Q06187 2-659 limits assumed) above
# Target sequence in this assay (Q96SW2 whole entry partner): as the sequence (Q96SW2 whole entry partner) above
# OCI-Ly10 = assay: Antiproliferative activity against human OCILY10 cells assessed as inhibition of cell growth measured after 3 days by CCK-8 assay; format: functional, cell-based; conditions: OCI-Ly10, 72 h
# TMD8 = assay: Antiproliferative activity against human TMD8 cells assessed as inhibition of cell growth measured after 3 days by CCK-8 assay; format: functional, cell-based; conditions: TMD8, 72 h
# JeKo-1 = assay: Antiproliferative activity against human JeKo-1 cells assessed as inhibition of cell growth measured after 3 days by CCK-8 assay; format: functional, cell-based; conditions: JeKo-1, 72 h
# BaF3 = assay: Antiproliferative activity against mouse BaF3 cells expressing BTK C481S mutant assessed as inhibition of cell growth measured after 3 days by CCK-8 assay; format: functional, cell-based; conditions: BaF3, 72 h
# [3] = molecular target: T1, Protein cereblon/Tyrosine-protein kinase BTK; assay: PROTAC activity at CRBN/BTK in human JeKo-1 cells assessed as induction of BTK degradation incubated for 24 hrs by Western blotting analysis; format: cell-based
# Target sequence in this assay (Q06187 whole entry): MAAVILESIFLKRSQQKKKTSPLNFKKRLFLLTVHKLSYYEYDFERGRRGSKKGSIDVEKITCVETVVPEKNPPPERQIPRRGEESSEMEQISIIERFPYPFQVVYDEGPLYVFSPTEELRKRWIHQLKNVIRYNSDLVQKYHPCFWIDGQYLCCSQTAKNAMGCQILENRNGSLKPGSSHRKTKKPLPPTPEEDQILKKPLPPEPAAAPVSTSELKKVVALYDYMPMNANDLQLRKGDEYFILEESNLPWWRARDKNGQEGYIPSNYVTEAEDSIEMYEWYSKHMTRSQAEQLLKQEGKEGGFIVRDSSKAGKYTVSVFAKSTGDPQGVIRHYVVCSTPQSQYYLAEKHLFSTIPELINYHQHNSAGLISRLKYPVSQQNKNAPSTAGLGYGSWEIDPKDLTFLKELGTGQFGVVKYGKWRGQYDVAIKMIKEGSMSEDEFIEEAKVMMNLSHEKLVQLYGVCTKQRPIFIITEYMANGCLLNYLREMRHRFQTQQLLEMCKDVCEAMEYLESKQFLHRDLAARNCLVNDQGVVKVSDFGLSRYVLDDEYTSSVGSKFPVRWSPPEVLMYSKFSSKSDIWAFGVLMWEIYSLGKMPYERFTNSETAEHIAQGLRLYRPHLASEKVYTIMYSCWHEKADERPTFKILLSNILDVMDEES
# Target sequence in this assay (Q96SW2 whole entry): as the sequence (Q96SW2 whole entry partner) above
# [4] = Metabolic stability in mouse liver microsomes assessed as half life at […] measured upto 60 mins in presence of NADPH by HPLC-MS/MS analysis; format: ADME, Microsome
# [5] = molecular target: T1, Protein cereblon/Tyrosine-protein kinase BTK; assay: PROTAC activity at CRBN/BTK in human JeKo-1 cells assessed as induction of BTK degradation by measuring maximal efficacy at 1.6 to 5000 nM incubated for 24 hrs by Western blotting analysis relative to control; format: cell-based; conditions: dose 1.6-5000 nM
# Target sequence in this assay (Q06187 2-659 limits assumed): as the sequence (Q06187 2-659 limits assumed) above
# Target sequence in this assay (Q96SW2 whole entry partner): as the sequence (Q96SW2 whole entry partner) above
# [6] = molecular target: T1, Protein cereblon/Tyrosine-protein kinase BTK; assay: PROTAC activity at CRBN/BTK in human JeKo-1 cells assessed as induction of BTK degradation by measuring maximal efficacy at 1.6 to 1000 nM incubated for 24 hrs by Western blotting analysis relative to control; format: cell-based; conditions: dose 1.6-1000 nM
# Target sequence in this assay (Q06187 2-659 limits assumed): as the sequence (Q06187 2-659 limits assumed) above
# Target sequence in this assay (Q96SW2 whole entry partner): as the sequence (Q96SW2 whole entry partner) above
# [7] = molecular target: T1, Protein cereblon/Tyrosine-protein kinase BTK; assay: PROTAC activity at CRBN/BTK in human JeKo-1 cells assessed as induction of BTK degradation pre-treated with N-((1S,4S)-4-((5-(2-chloro-4-phenoxybenzoyl)-7H-pyrrolo[2,3-d]pyrimidin-4-yl)amino)cyclohexyl)-2-(1-(2-(1-(6-fluoro-2-(1-methyl-2,6-dioxopiperidin-3-yl)-1-oxoisoindolin-5-yl)piperidin-4-yl)ethyl)piperidin-4-yl)acetamide for 2 hrs followed by compound treatment for 12 hrs by Western blotting analysis; format: cell-based
# Target sequence in this assay (Q06187 2-659 limits assumed): as the sequence (Q06187 2-659 limits assumed) above
# Target sequence in this assay (Q96SW2 whole entry partner): as the sequence (Q96SW2 whole entry partner) above
# [8] = molecular target: T1, Protein cereblon/Tyrosine-protein kinase BTK; assay: PROTAC activity at CRBN/BTK in human JeKo-1 cells assessed as induction of BTK degradation pre-treated with MG-132 for 2 hrs followed by compound treatment for 12 hrs by Western blotting analysis; format: cell-based
# Target sequence in this assay (Q06187 2-659 limits assumed): as the sequence (Q06187 2-659 limits assumed) above
# Target sequence in this assay (Q96SW2 whole entry partner): as the sequence (Q96SW2 whole entry partner) above
# [9] = molecular target: T1, Protein cereblon/Tyrosine-protein kinase BTK; assay: PROTAC activity at CRBN/BTK in human JeKo-1 cells assessed as effect on […] levels at 1.6 to 1000 nM incubated for 24 hrs by Western blotting analysis; format: cell-based; conditions: dose 1.6-1000 nM
# [10] = molecular target: T1, Protein cereblon/Tyrosine-protein kinase BTK; assay: PROTAC activity at CRBN/BTK in human JeKo-1 cells assessed as effect on GSPT1 levels at 1.6 to 1000 nM incubated for 24 hrs by Western blotting analysis; format: cell-based; conditions: dose 1.6-1000 nM
# [11] = Drug concentration in BALB/c mouse plasma at 2 mg/kg, iv measured after 4 hrs by LC-MS/MS analysis; format: ADME, organism-based
structure (smiles),measurement,setting,value
O=C1CCC(N2C(=O)c3ccc(N4CCC(CN5CC(CN[C@H]6CC[C@@H](Nc7ncnc8[nH]cc(C(=O)c9ccc(Oc%10ccccc%10)cc9Cl)c78)CC6)C5)CC4)cc3C2=O)C(=O)N1 (some centres undefined),Activity,[1],29.5%
same,Activity,[2],38.5%
C=CC(=O)N1CCC[C@@H](n2nc(-c3ccc(Oc4ccccc4)cc3)c3c(N)ncnc32)C1 [IBRUTINIB],IC50,OCI-Ly10,4.5 nM
same,IC50,TMD8,4.7 nM
same,IC50,JeKo-1,79.8 nM
same,IC50,BaF3,1550 nM
O=C1CCC(N2C(=O)c3cc(F)c(N4CCC(CCN5CCC(CC(=O)N[C@H]6CC[C@@H](Nc7ncnc8[nH]cc(C(=O)c9ccc(Oc%10ccccc%10)cc9Cl)c78)CC6)CC5)CC4)cc3C2=O)C(=O)N1 (some centres undefined),DC50,[3],9.3 nM
same,Activity,[1],87%
same,Activity,[2],88.5%
same,half-life,[4],55.4 min
same,Emax,[5],93.6%
same,IC50,OCI-Ly10,28.2 nM
same,IC50,TMD8,47 nM
same,IC50,JeKo-1,116 nM
O=C1CCC(N2C(=O)c3ccc(N4CCC(CC(=O)N5CCC(CN[C@H]6CC[C@@H](Nc7ncnc8[nH]cc(C(=O)c9ccc(Oc%10ccccc%10)cc9Cl)c78)CC6)CC5)CC4)cc3C2=O)C(=O)N1 (some centres undefined),Activity,[1],45.5%
same,Activity,[2],57%
O=C1CCC(N2Cc3ccc(N4CCC(CCN5CCC(CC(=O)N[C@H]6CC[C@@H](Nc7ncnc8[nH]cc(C(=O)c9ccc(Oc%10ccccc%10)cc9Cl)c78)CC6)CC5)CC4)cc3C2=O)C(=O)N1 (some centres undefined),DC50,[3],7.4 nM
same,Activity,[1],83%
same,Activity,[2],87%
same,Emax,[6],90.6%
same,half-life,[4],> 145 min
same,IC50,OCI-Ly10,5.9 nM
same,IC50,TMD8,9.3 nM
same,IC50,JeKo-1,34.4 nM
O=C1CCC(N2C(=O)c3ccc(N4CCC(CCN5CCC(CN[C@H]6CC[C@@H](Nc7ncnc8[nH]cc(C(=O)c9ccc(Oc%10ccccc%10)cc9Cl)c78)CC6)CC5)CC4)cc3C2=O)C(=O)N1 (some centres undefined),DC50,[3],100 nM
same,Activity,[1],76%
same,Activity,[2],69.5%
O=C1CCC(N2C(=O)c3ccc(N4CCC(N5CCC(CN[C@H]6CC[C@@H](Nc7ncnc8[nH]cc(C(=O)c9ccc(Oc%10ccccc%10)cc9Cl)c78)CC6)CC5)CC4)cc3C2=O)C(=O)N1 (some centres undefined),Activity,[1],39%
same,Activity,[2],42.5%
O=C1CCC(N2C(=O)c3ccc(N4CCC(CN5CCC(C(=O)N[C@H]6CC[C@@H](Nc7ncnc8[nH]cc(C(=O)c9ccc(Oc%10ccccc%10)cc9Cl)c78)CC6)CC5)CC4)cc3C2=O)C(=O)N1 (some centres undefined),Activity,[1],61%
same,Activity,[2],50%
O=C(c1ccc(Oc2ccccc2)cc1Cl)c1c[nH]c2ncnc(N[C@@H]3CC[C@@H](CO)OC3)c12 [NEMTABRUTINIB],IC50,JeKo-1,66.1 nM
same,IC50,BaF3,548 nM
O=C1CCC(N2C(=O)c3ccc(N4CCC(CCN5CCC(CC(=O)N[C@H]6CC[C@@H](Nc7ncnc8[nH]cc(C(=O)c9ccc(Oc%10ccccc%10)cc9Cl)c78)CC6)CC5)CC4)cc3C2=O)C(=O)N1 (some centres undefined),DC50,[3],8.8 nM
same,Activity,[1],85%
same,Activity,[2],82.5%
same,half-life,[4],86 min
same,Emax,[5],94.1%
same,IC50,OCI-Ly10,15.4 nM
same,IC50,TMD8,82.1 nM
same,IC50,JeKo-1,59.5 nM
O=C1CCC(N2Cc3cc(N4CCC(CCN5CCC(CC(=O)N[C@H]6CC[C@@H](Nc7ncnc8[nH]cc(C(=O)c9ccc(Oc%10ccccc%10)cc9Cl)c78)CC6)CC5)CC4)c(F)cc3C2=O)C(=O)N1 (some centres undefined),DC50,[3],7 nM
same,Activity,[1],91%
same,Activity,[2],89%
same,Emax,[6],96.5%
same,half-life,[4],> 145 min
same,Activity,[7],inactive
same,Activity,[8],inactive
same,Activity,[9],inactive
same,Activity,[10],inactive
same,IC50,OCI-Ly10,2.3 nM
same,IC50,TMD8,4.5 nM
same,IC50,JeKo-1,38.1 nM
same,IC50,BaF3,86 nM
same,concentration at 4 h,[11],> 10 nM
O=C1CCC(N2C(=O)c3ccc(N4CCC(CN5CCC(CCN[C@H]6CC[C@@H](Nc7ncnc8[nH]cc(C(=O)c9ccc(Oc%10ccccc%10)cc9Cl)c78)CC6)CC5)CC4)cc3C2=O)C(=O)N1 (some centres undefined),Activity,[1],57%
same,Activity,[2],77%
O=C1CCC(N2Cc3cc(N4CCC(CCN5CCC(CC(=O)N[C@H]6CC[C@@H](Nc7ncnc8[nH]cc(C(=O)c9ccc(Oc%10ccccc%10)cc9Cl)c78)CC6)CC5)CC4)ccc3C2=O)C(=O)N1 (some centres undefined),DC50,[3],10.1 nM
same,Activity,[1],80.4%
same,Activity,[2],86%
same,Emax,[6],90.1%
same,half-life,[4],52 min
same,IC50,OCI-Ly10,15.7 nM
same,IC50,TMD8,15.5 nM
O=C1CCC(N2C(=O)c3ccc(N4CCC(CN5CCC(CN[C@H]6CC[C@@H](Nc7ncnc8[nH]cc(C(=O)c9ccc(Oc%10ccccc%10)cc9Cl)c78)CC6)CC5)CC4)cc3C2=O)C(=O)N1 (some centres undefined),Activity,[1],48%
same,Activity,[2],63.5%
O=C1CCC(N2C(=O)c3ccc(N4CC(N5CCC(CN[C@H]6CC[C@@H](Nc7ncnc8[nH]cc(C(=O)c9ccc(Oc%10ccccc%10)cc9Cl)c78)CC6)CC5)C4)cc3C2=O)C(=O)N1 (some centres undefined),Activity,[1],30%
same,Activity,[2],21%
O=C1CCC(N2C(=O)c3ccc(N4CCC(N[C@H]5CC[C@@H](Nc6ncnc7[nH]cc(C(=O)c8ccc(Oc9ccccc9)cc8Cl)c67)CC5)CC4)cc3C2=O)C(=O)N1 (some centres undefined),Activity,[1],3%
same,Activity,[2],5%
O=C1CCC(N2C(=O)c3ccc(N4CCC(N5CCC(N[C@H]6CC[C@@H](Nc7ncnc8[nH]cc(C(=O)c9ccc(Oc%10ccccc%10)cc9Cl)c78)CC6)CC5)CC4)cc3C2=O)C(=O)N1 (some centres undefined),Activity,[1],15%
same,Activity,[2],18.5%
O=C1CCC(N2C(=O)c3ccc(N4CCC(F)(CN5CCC(CC(=O)N[C@H]6CC[C@@H](Nc7ncnc8[nH]cc(C(=O)c9ccc(Oc%10ccccc%10)cc9Cl)c78)CC6)CC5)CC4)cc3C2=O)C(=O)N1 (some centres undefined),Activity,[1],28.5%
same,Activity,[2],26%
O=C1CCC(N2C(=O)c3ccc(N4CCC(CN5CCC(CC(=O)N[C@H]6CC[C@@H](Nc7ncnc8[nH]cc(C(=O)c9ccc(Oc%10ccccc%10)cc9Cl)c78)CC6)CC5)CC4)cc3C2=O)C(=O)N1 (some centres undefined),DC50,[3],24 nM
same,Activity,[1],79.5%
same,Activity,[2],73.5%
O=C1CCC(N2C(=O)c3ccc(N4CCC(CN5CCCC(N[C@H]6CC[C@@H](Nc7ncnc8[nH]cc(C(=O)c9ccc(Oc%10ccccc%10)cc9Cl)c78)CC6)C5)CC4)cc3C2=O)C(=O)N1 (some centres undefined),Activity,[1],31.5%
same,Activity,[2],74%
O=C1CCC(N2C(=O)c3cccc(NCCOCCOCCOCCOCCOCCNC(=O)N[C@H]4CC[C@@H](Nc5ncnc6[nH]cc(C(=O)c7ccc(Oc8ccccc8)cc7Cl)c56)CC4)c3C2=O)C(=O)N1 (some centres undefined),DC50,[3],20 nM
same,Activity,[1],86.5%
same,Activity,[2],88.6%
same,Emax,[6],93.8%
same,half-life,[4],1.3 min
same,IC50,BaF3,1760 nM
O=C1CCC(N2C(=O)c3ccc(N4CCC(CN5CC(N[C@H]6CC[C@@H](Nc7ncnc8[nH]cc(C(=O)c9ccc(Oc%10ccccc%10)cc9Cl)c78)CC6)C5)CC4)cc3C2=O)C(=O)N1 (some centres undefined),Activity,[1],32%
same,Activity,[2],24%
O=C1CCC(N2C(=O)c3ccc(N4CCC(CN5CCC(N[C@H]6CC[C@@H](Nc7ncnc8[nH]cc(C(=O)c9ccc(Oc%10ccccc%10)cc9Cl)c78)CC6)CC5)CC4)cc3C2=O)C(=O)N1 (some centres undefined),Activity,[1],51.5%
same,Activity,[2],62%
